Data published in patent US20220340875A1, “METHODS OF CULTURING AND/OR EXPANDING STEM CELLS AND/OR LINEAGE COMMITTED PROGENITOR CELLS USING AMIDO COMPOUNDS” (IDEAYA BIOSCIENCES, INC., priority 2018, published 2022).

Target: T1, hAhR (Homo sapiens, UniProt P35869)
T1 construct: Stably integrated DRE-luciferase cell lines were generated by transducing the both cell lines with Cignal XRE luciferase reporter (Qiagen) lentiviral particles; endogenous in cells
T1 sequence (P35869 11-848): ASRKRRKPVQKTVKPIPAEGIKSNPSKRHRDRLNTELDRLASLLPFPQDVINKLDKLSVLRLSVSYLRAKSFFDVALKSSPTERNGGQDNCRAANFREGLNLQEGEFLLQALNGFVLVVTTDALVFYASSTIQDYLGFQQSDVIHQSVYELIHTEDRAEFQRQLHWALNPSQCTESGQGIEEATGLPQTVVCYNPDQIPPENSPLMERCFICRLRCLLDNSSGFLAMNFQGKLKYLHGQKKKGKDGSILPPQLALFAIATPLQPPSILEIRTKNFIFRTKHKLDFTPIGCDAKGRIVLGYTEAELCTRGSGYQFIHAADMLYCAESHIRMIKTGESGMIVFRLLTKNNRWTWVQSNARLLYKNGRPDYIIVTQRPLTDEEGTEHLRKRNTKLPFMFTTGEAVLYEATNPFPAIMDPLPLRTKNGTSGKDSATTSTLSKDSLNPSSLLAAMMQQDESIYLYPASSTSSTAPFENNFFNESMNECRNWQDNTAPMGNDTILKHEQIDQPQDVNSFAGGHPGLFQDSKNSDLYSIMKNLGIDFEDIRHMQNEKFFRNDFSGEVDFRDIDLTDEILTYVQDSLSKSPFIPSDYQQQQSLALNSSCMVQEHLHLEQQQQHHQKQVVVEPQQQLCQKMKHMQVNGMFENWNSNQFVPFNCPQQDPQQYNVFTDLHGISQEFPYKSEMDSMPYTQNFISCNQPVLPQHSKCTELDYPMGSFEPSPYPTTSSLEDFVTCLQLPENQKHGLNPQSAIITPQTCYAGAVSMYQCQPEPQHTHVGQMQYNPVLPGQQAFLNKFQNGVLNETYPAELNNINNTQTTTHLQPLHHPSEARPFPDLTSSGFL
Assay: AhR DRE-luciferase reporter transcriptional assay, antagonist mode (TCDD-induced)
Type: cell-based
Details: HEPG2 DRE-Luc cells, 3 nM TCDD, 24 hour incubation, relative IC50
Procedure: HEPG2 and HEPA1C1C7 cells were maintained in MEM and αMEM without nucleosides supplemented with 10% heat inactivated FBS respectively. Stably integrated DRE-luciferase cell lines were generated by transducing the both cell lines with Cignal XRE luciferase reporter (Qiagen) lentiviral particles according to the manufacturer protocol. For both cell lines stably integrated reporter cell lines were selected for the presence of 2 µg/mL puromycin. Following selection of stably integrated cell line pools, clonal cell lines were isolated by limiting dilution in 96-well plates. Transcriptional assays were performed by seeding 100 μL of cells at a density of 250,000 or 100,000 cells/mL, for HEPG2 and HEPA1C1C7 DRE-Luc cells respectively, into 96-well cell culture plates in OptiMEM supplemented with 0.5% heat inactivated FBS and allowed to attach overnight. For modulator assays, the compounds were added in a semi-log dose response using a D300e Digital Dispenser (Tecan) followed normalization with vehicle (DMSO). Immediately following compound addition 10 μL of 2,3,7,8-Tetrachlorodibenzo-p-dioxin (TCDD) was added to the cells to a final concentration of 3 nM or 0.3 nM for the HEPG2 and HEPA1C1C7 DRE-Luc cells respectively. Following 24 hour incubation the medium was removed and the cells were lysed in 25 μL of Reporter Lysis Buffer (Promega). Firefly luciferase activity was measured immediately following the addition of 50 μL Luciferase Assay Reagent (Promega). The percent maximal activity for each point was determined using the following equasion: (RLUsample-RLUvehicle−TCDD)/(RLUvehicle+TCDD RLUvehicle−TCDD)*100. The relative IC50, defined as the compound concentration required to reduce the TCDD induced response between the top and bottom plateau of each individual dose response curve by half, for each compound was determined using Prism 7 (GraphPad Software).

Compound | IC50
Cc1c(NC(=O)c2ccnn2C)ccc(-c2ncc3nc(C(F)(F)F)ccc3n2)c1C [Example 190, N-(2,3-dimethyl-4-(6-(trifluoromethyl)pyrido[3,2-d]pyrimidin-2-yl)phenyl)-1-methyl-1H-pyrazole-5-carboxamide] | 1000 to 10000 nM
Cc1cc(-c2ncc3nc(C(F)(F)F)cc(C)c3n2)ccc1N(C)C(=O)c1ccnn1CC(N)=O [Example 171, 1-(2-amino-2-oxoethyl)-N-methyl-N-(2-methyl-4-(8-methyl-6-(trifluoromethyl)pyrido[3,2-d]pyrimidin-2-yl)phenyl)-1H-pyrazole-5-carboxamide] | 200 to 500 nM
Cc1nc(-c2ccc3cc(F)ccc3n2)ccc1NC(=O)c1ccnn1C [Example 045, N-(6-(6-fluoroquinolin-2-yl)-2-methylpyridin-3-yl)-1-methyl-1H-pyrazole-5-carboxamide] | 1000 to 10000 nM
Cc1cc(-c2ccc3cc(F)ccc3n2)ccc1NC(=O)c1cncn1C [Example 034, N-(4-(6-fluoroquinolin-2-yl)-2-methylphenyl)-1-methyl-1H-imidazole-5-carboxamide] | 500 to 1000 nM
Cc1c(-c2ncc3cc(C(F)(F)F)ccc3n2)ccc(NC(=O)c2ccnn2C)c1F [Example 113, N-(2-fluoro-3-methyl-4-(6-(trifluoromethyl)quinazolin-2-yl)phenyl)-1-methyl-1H-pyrazole-5-carboxamide] | 200 to 500 nM
Cc1cc(-c2ncc3cc(C(F)(F)F)ccc3n2)ccc1N(C)C(=O)c1nn(C)cc1C [Example 214, N,1,4-trimethyl-N-(2-methyl-4-(6-(trifluoromethyl)quinazolin-2-yl)phenyl)-1H-pyrazole-3-carboxamide] | 200 to 500 nM
Cc1cc(-c2ccc3cc(F)ccc3n2)ccc1NC(=O)c1ncco1 [Example 039, N-(4-(6-fluoroquinolin-2-yl)-2-methylphenyl)oxazole-2-carboxamide] | 500 to 1000 nM
Cc1cc(-c2ccc3cncc(Cl)c3c2)ccc1NC(=O)c1ccnn1C [Example 060, N-(4-(4-chloroisoquinolin-6-yl)-2-methylphenyl)-1-methyl-1H-pyrazole-5-carboxamide] | 200 to 500 nM
Cc1cc(-c2ncc3nc(C(F)(F)F)ccc3n2)c(C)cc1NC(=O)c1ccnn1C [Example 189, N-(2,5-dimethyl-4-(6-(trifluoromethyl)pyrido[3,2-d]pyrimidin-2-yl)phenyl)-1-methyl-1H-pyrazole-5-carboxamide] | 1000 to 10000 nM
Cc1cc(-c2ccc3cnccc3c2)ccc1NC(=O)c1ccnn1C [Example 021, N-(4-(Isoquinolin-6-yl)-2-methylphenyl)-1-methyl-1H-pyrazole-5-carboxamide] | 500 to 1000 nM
Cc1cc(-c2ccc3nc(C(F)(F)F)cc(C)c3n2)ccc1N(C)C(=O)c1ccnn1CCO [Example 223, 1-(2-hydroxyethyl)-N-methyl-N-[2-methyl-4-[8-methyl-6-(trifluoromethyl)-1,5-naphthyridin-2-yl]phenyl]-1H-pyrazole-5-carboxamide] | < 200 nM
Cc1cc(-c2ccc3ccn(C)c3c2)ccc1NC(=O)c1ccnn1C [Example 082, 1-Methyl-N-(2-methyl-4-(1-methyl-1H-indol-6-yl)phenyl)-1H-pyrazole-5-carboxamide] | 500 to 1000 nM
Cc1cc(-c2ccc3cccc(F)c3n2)ccc1NC(=O)OC(C)(C)C [Example 022, tert-butyl (4-(8-fluoroquinolin-2-yl)-2-methylphenyl)carbamate] | 1000 to 10000 nM
Cc1cc(C(F)(F)F)nc2cnc(-c3ccc(N(C)C(=O)c4ccnn4C)c(F)c3)nc12 [Example 162, N-(2-fluoro-4-(8-methyl-6-(trifluoromethyl)pyrido[3,2-d]pyrimidin-2-yl)-phenyl)-N,1-dimethyl-1H-pyrazole-5-carboxamide] | < 200 nM
Cc1cc(-c2ccc3cc(F)ccc3n2)ccc1NC(=O)C1CCOCC1 [Example 025, N-(4-(6-fluoroquinolin-2-yl)-2-methylphenyl)tetrahydro-2H-pyran-4-carboxamide] | 1000 to 10000 nM

Second part, the molecule after the results:

IC50 | Compound
< 200 nM | Cc1cc(-c2nc3cc(F)ccc3s2)ccc1NC(=O)c1ccnn1C [Example 099, N-(4-(5-fluorobenzo[d]thiazol-2-yl)-2-methylphenyl)-1-methyl-1H-pyrazole-5-carboxamide]
< 200 nM | Cc1cc(-c2ccc3cc(C(F)(F)F)ccc3n2)ccc1N(C)C(=O)c1ccnn1C [Example 002, N,1-Dimethyl-N-(2-methyl-4-(6-(trifluoromethyl)quinolin-2-yl)phenyl)-1H-pyrazole-5-carboxamide]
< 200 nM | COc1cc(C(=O)Nc2ccc(-c3ncc4cc(C(F)(F)F)ccc4n3)cc2C)ccn1 [Example 142, 2-methoxy-N-(2-methyl-4-(6-(trifluoromethyl)quinazolin-2-yl)phenyl)isonicotinamide]
< 200 nM | CNC(=O)c1cc(C(=O)Nc2ccc(-c3ncc4nc(C(F)(F)F)cc(C)c4n3)cc2C)ccn1 [Example 167, N2-methyl-N4-(2-methyl-4-(8-methyl-6-(trifluoromethyl)pyrido[3,2-d]pyrimidin-2-yl)phenyl)pyridine-2,4-dicarboxamide]
< 200 nM | Cc1cc(-c2ccc3cc(C(F)(F)F)ccc3n2)cc(F)c1NC(=O)c1ccnn1C [Example 008, N-(2-fluoro-6-methyl-4-(6-(trifluoromethyl)quinolin-2-yl)phenyl)-1-methyl-1H-pyrazole-5-carboxamide]
< 200 nM | Cc1cc(-c2ncc3cc(C(F)(F)F)ccc3n2)ccc1N(C)C(=O)c1ncc[nH]1 [Example 132, N-methyl-N-(2-methyl-4-(6-(trifluoromethyl)quinazolin-2-yl)phenyl)-1H-imidazole-2-carboxamide]
< 200 nM | COc1cnccc1C(=O)N(C)c1ccc(-c2ncc3nc(C(F)(F)F)cc(C)c3n2)cc1C [Example 183, 3-methoxy-N-methyl-N-(2-methyl-4-(8-methyl-6-(trifluoromethyl)-pyrido[3,2-d]pyrimidin-2-yl)phenyl)isonicotinamide]
< 200 nM | Cc1cc(-c2ncc3cc(C(F)(F)F)ccc3n2)ccc1N(C)C(=O)c1c(C)cnn1C [Example 217, N,1,4-trimethyl-N-(2-methyl-4-(6-(trifluoromethyl)quinazolin-2-yl)phenyl)-1H-pyrazole-5-carboxamide]
< 200 nM | Cc1cc(-c2ncc3nc(C(F)(F)F)cc(C)c3n2)ccc1N(C)C(=O)c1ccnn1CCO [Example 173, 1-(2-hydroxyethyl)-N-methyl-N-(2-methyl-4-(8-methyl-6-(trifluoromethyl)-pyrido[3,2-d]pyrimidin-2-yl)phenyl)-1H-pyrazole-5-carboxamide]
< 200 nM | Cc1cc(-c2ccc3cc([N+](=O)[O-])ccc3n2)ccc1NC(=O)c1ccnn1C [Example 076, 1-methyl-N-(2-methyl-4-(6-nitroquinolin-2-yl)phenyl)-1H-pyrazole-5-carboxamide]
< 200 nM | Cc1cc(C(F)(F)F)nc2cnc(-c3ccc(NC(=O)N4CCOCC4)c(F)c3)nc12 [Example 185, N-(2-fluoro-4-(8-methyl-6-(trifluoromethyl)pyrido[3,2-d]pyrimidin-2-yl)-phenyl)morpholine-4-carboxamide]
< 200 nM | Cc1cc(-c2ncc3cc(C(F)(F)F)cc(C)c3n2)ccc1N(C)C(=O)c1ccnn1C [Example 111, N,1-dimethyl-N-(2-methyl-4-(8-methyl-6-(trifluoromethyl)quinazolin-2-yl)phenyl)-1H-pyrazole-5-carboxamide]
